Source: ChEMBL document CHEMBL6087436, “The novel β-hairpin antimicrobial peptide D-G(RF)3 demonstrates exceptional antibacterial efficacy” (Eur J Med Chem, 2025)
Calls of active or inactive are those of the source. The rule behind the calls is not given here. Where a SMILES comes first, the peptide text is derived from it. Bridges are numbered along the chain shown (N, C = ends). [ ]: non-standard residue; d: D form. The star is where a group is joined. X1 = CC[C@H](C)CCCCC(=O)*; dDab = NCC[C@@H](N)C(=O)O; Dab = NCC[C@H](N)C(=O)O

What was measured:
Escherichia coli [1] = assay: Inhibition of biofilm formation in Escherichia coli ATCC 25922 incubated for 24 hrs by crystal violet staining based analysis; type: functional, organism-based; conditions: dose 1-32 µM
Escherichia coli [2] = assay: Antimicrobial activity against Escherichia coli at 2 times MIC in presence of LPS preincubated for 1 hr followed by bacterial addition and measured after 6 hrs by LPS competitive inhibition assay; type: functional, organism-based
Cell membrane [3] = assay: Induction of cell membrane permeability in Escherichia coli assessed as rough convex surface at 2 times MIC by SEM analysis; type: subcellular
Cell membrane [4] = assay: Induction of Outer membrane permeabilization in Escherichia coli at 8 uM by NPN-dye based fluorescence analysis; type: subcellular
Staphylococcus aureus = assay: Inhibition of biofilm formation in Staphylococcus aureus ATCC 25923 incubated for 24 hrs by crystal violet staining based analysis; type: functional, organism-based; conditions: dose 1-32 µM
Klebsiella pneumoniae [5] = assay: Inhibition of biofilm formation in Klebsiella pneumoniae ATCC 700603 at 1 uM incubated for 24 hrs by crystal violet staining based analysis; type: functional, organism-based
Escherichia coli [6] = assay: Inhibition of biofilm formation in Escherichia coli ATCC 25922 at >= 2 uM incubated for 24 hrs by crystal violet staining based analysis; type: functional, organism-based
Pseudomonas aeruginosa = assay: Inhibition of biofilm formation in Pseudomonas aeruginosa ATCC 27853 incubated for 24 hrs by crystal violet staining based analysis; type: functional, organism-based; conditions: dose 1-32 µM
Klebsiella pneumoniae [7] = assay: In vivo antibacterial activity against Klebsiella pneumoniae ATCC 700603 infected in male Balb/c mouse lung infection model assessed as increase on compensatory dilation at 5 mg/kg, ip and measured after 24 hrs; type: functional, organism-based
Escherichia coli [8] = assay: Inhibition of biofilm formation in Escherichia coli ATCC 25922 at 1 uM incubated for 24 hrs by crystal violet staining based analysis; type: functional, organism-based
Klebsiella pneumoniae [9] = assay: In vivo antibacterial activity against Klebsiella pneumoniae ATCC 700603 infected in male Balb/c mouse lung infection model assessed as reduction in serous exudation of alveolar cavities at 10 mg/kg, ip measured after 24 hrs by H and E staining based analysis; type: functional, organism-based
Klebsiella pneumoniae [10] = assay: In vivo antibacterial activity against Klebsiella pneumoniae ATCC 700603 infected in male Balb/c mouse lung infection model assessed as reduction in crumpling alveoli at 10 mg/kg, ip measured after 24 hrs by H and E staining based analysis; type: functional, organism-based
Klebsiella pneumoniae [11] = assay: In vivo antibacterial activity against Klebsiella pneumoniae ATCC 700603 infected in male Balb/c mouse lung infection model assessed as reduction in alveoli expansion at 10 mg/kg, ip measured after 24 hrs by H and E staining based analysis; type: functional, organism-based
Klebsiella pneumoniae [12] = assay: Inhibition of biofilm formation in Klebsiella pneumoniae ATCC 700603 incubated for 24 hrs by crystal violet staining based analysis; type: functional, organism-based; conditions: dose 1-32 µM

SMILES: CC(C)CCCCC(=O)N[C@@H](CCN)C(=O)N[C@H](C(=O)N[C@@H](CCN)C(=O)N[C@H]1CCNC(=O)[C@H]([C@@H](C)O)NC(=O)[C@H](CCN)NC(=O)[C@H](CCN)NC(=O)[C@H](CC(C)C)NC(=O)[C@@H](Cc2ccccc2)NC(=O)[C@@H](CCN)NC1=O)[C@@H](C)O.CC[C@H](C)CCCCC(=O)N[C@@H](CCN)C(=O)N[C@H](C(=O)N[C@@H](CCN)C(=O)N[C@H]1CCNC(=O)[C@H]([C@@H](C)O)NC(=O)[C@H](CCN)NC(=O)[C@H](CCN)NC(=O)[C@H](CC(C)C)NC(=O)[C@@H](Cc2ccccc2)NC(=O)[C@@H](CCN)NC1=O)[C@@H](C)O (X1-[Dab]T[Dab][Dab][dDab][dF]L[Dab][Dab]T; lactam 4-C)
- inhibition (Escherichia coli [1]): Dose-dependent-effect
- Activity (Escherichia coli [2]): inactive
- Activity (Cell membrane [3]): Active
- Activity (Cell membrane [4]): Active
- inhibition (Staphylococcus aureus): Dose-dependent-effect
- inhibition (Klebsiella pneumoniae [5]): Active
- inhibition (Escherichia coli [6]): Active
- inhibition (Pseudomonas aeruginosa): Dose-dependent-effect
- Activity (Klebsiella pneumoniae [7]): Active
- inhibition (Escherichia coli [8]): Active
- Activity (Klebsiella pneumoniae [9]): Active
- Activity (Klebsiella pneumoniae [10]): Active
- Activity (Klebsiella pneumoniae [11]): Active
- inhibition (Klebsiella pneumoniae [12]): Dose-dependent-effect
